Test results: US7879792B2, “Synthetic peptide inhibitors of thrombin and thrombin activation of protease activated receptors 1 and 4” (The Regents of the University of Michigan, priority 2005, dated 2011)
Like-named read-outs stand apart in the source and are kept apart here. Where a SMILES comes first, the peptide text is derived from it.

Experiments:
[1] = system: normal human citrated plasma; assay: thrombin clotting time (TCT); format: biochemical; conditions: 1 nM thrombin
Protocol: (§1) The influence of the various peptide formulations used in the present invention on established coagulation-based assays was determined. The activated partial thromboplastin time (APTT) is performed by mixing 0.05 ml normal human citrated plasma with 0.05 ml activated partial thromboplastin reagent purchased from Organon Teknika, Research Triangle Park, NC in the absence or presence of a peptide inhibitor. After incubation for 5 min at 37° C., the mixture is recalcified with 0.05 ml of 30 mM calcium chloride and the time to clot formation is measured in an Amelung KC4A instrument (Sigma Chemical Corp, St. Louis, Mo.) (Hasan et al. Thrombosis and Haemostasis. 82, 1182-1187 (1999)). The prothrombin time (PT) is performed by mixing 0.05 ml normal human citrated plasma with 0.05 ml Simplastin (Organon Teknika, Research Triangle Park, NC) followed by incubation for 3 min at 37° C. in the absence or presence of a peptide inhibitor. At the addition of 0.05 ml of 30 mM calcium chloride, the time to clot formation is measured in an KC4A instrument (Sigma Chemical Corp, St. Louis, Mo.) (Hasan et al. Thrombosis and Haemostasis. 82, 1182-1187 (1999)). The thrombin clotting time (TCT) is performed by adding 0.1 ml normal human citrated plasma in the absence or presence of a peptide inhibitor and 0.05 ml of a α-thrombin solution such that the final concentration of the thrombin in the entire mixture was 1 nM. Upon addition of the thrombin, the time to clot formation is measured in an KC4A instrument (Sigma Chemical Corp, St. Louis, Mo.).

[2] = system: normal human lung fibroblasts (NHLF); assay: α-thrombin-induced calcium mobilization in normal human lung fibroblasts; format: cell-based; conditions: 2 nM alpha thrombin
Protocol: The second assay developed to assess peptides from the combinatorial libraries uses inhibition of α-thrombin-induced calcium mobilization in fibroblasts. Normal human lung fibroblasts (NHLF) were purchased from Clonetics, San Diego, Calif., an affiliate of Bio-Wittaker, Walkersville, Md. The cytoplasmic free Ca^2+ concentration ([Ca^2+]i) was measured using the fluorescent Ca^2+ indicator fura-2 (Molecular Probes, Inc., Eugene, Oreg.). Suspension of fibroblasts in Hepes-Tyrode's buffer were loaded with fura-2 by incubation at 37° C. with 2 μM fura-2/acetoxymethyl ester for 45 minutes according to the method of Rasmussen et al., J. Biol. Chem. 268, 14322 (1993). The labeled fibroblasts were separated from excess probe by washing by centrifugation at 1000 rpm (180 xg). Aliquots of the labeled fibroblasts were transferred into a quartz cuvette with a magnetic stirrer, which was then placed in a thermostatically controlled chamber at 37° C. in a fluorescence spectrophotometer (Perkin-Elmer LS50B spectrofluorometer, Chicago, Ill.). Reagents, test peptide, and α-thrombin (0.25-2 nM), were sequentially added directly to the cuvette. The excitation wavelengths varied between 340 and 380 nm. Fluorescence was measured by recording emitted light at 510 nm as reported by Fisher et al., Mol Pharm. 35, 195 (1989). The minimum emission was determined on a solubilized fibroblast sample in the presence of 10 mM EDTA; maximum emission was determined on the same sample with 10 mM Ca^2+ added. The intrafibroblast free Ca^2+ concentration was calculated by the method of Grykiewicz et al., J. Biol. Chem. 260, 3440 (1985). The ratio of the fluorescence readings was calculated as R=340/380 nm and processed according to the equation [Ca^2+]i=KD((R−Rmin)/Rmax−R))(Sf2/Sb2) to determine the intrafibroblast free Ca^2+ concentration. The KD for fura-2 was assumed to be 224 nM. Rmax and Rmin are the maximum and minimum fluorescence ratios measured at the end of the experiment, respectively; Sf2 and Sb2 are the fluorescence values at 380 nm in the absence and presence of saturating [Ca^2+], respectively. The reaction was monitored for 3-5 minutes.

γ-thrombin = assay: inhibition of γ-thrombin hydrolysis of chromogenic substrate; format: biochemical, human; conditions: read-out: Ki (μM) + SD, γIIa (2 nM), gamma-thrombin 2 nM, Sar-Pro-Arg-paranitroanilide
[3] = system: normal human citrated plasma; assay: activated partial thromboplastin time (APTT); format: biochemical
Protocol: as §1

[4] = system: γ-thrombin-induced platelet aggregation; assay: γ-thrombin-induced platelet aggregation in human platelet-rich plasma; format: cell-based; conditions: for Concentration of Peptide [mM] That Gives 100% Inhibition: 40 nM human gamma thrombin, human platelet-rich plasma; for concentration that abolished γ-thrombin-induced platelet aggregation: 40 nM γ-thrombin
Protocol: Fresh whole blood was collected and mixed with 0.013 M sodium citrate and platelet-rich plasma was prepared according to the method of Meloni et al., J. Biol. Chem. 266, 6786 (1991). Platelet-rich plasma with a normalized platelet count between 2-2.5×10^8 platelets/ml was added to a cuvette of an aggregometer (Chronlog Corp., Havertown, Pa.), standardized using the protocol of Meloni et al., supra. Peptides to be examined were added to the cuvette and the mixture stabilized for a few moments. Once the baseline was stabilized, γ-thrombin (10-70 nM) (Haematologic Technologies, Essex Junction, Vt.) was added to determine the minimal concentration of the agonist necessary to achieve full platelet aggregation. All investigations with peptides were performed using threshold concentrations of γ-thrombin. Aggregation was allowed to proceed for 5 minutes before stopping.
Table III is a tabulation of the library of peptides prepared and their influence on γ-thrombin-induced platelet aggregation in platelet-rich plasma. […] The numbers in the column represent the minimal concentration (mM) of the peptide that blocked 100% γ-thrombin-induced platelet aggregation of platelets in human platelet-rich plasma.
Human platelet samples were stimulated with 40 nM human gamma thrombin in each experiment.

[5] = system: normal human citrated plasma; assay: prothrombin time (PT); format: biochemical
Protocol: as §1

human α-thrombin = human α-thrombin (Homo sapiens, UniProt P00734); assay: inhibition of α-thrombin hydrolysis of chromogenic substrate; format: biochemical; conditions: Ki (μM) + SD, αIIa (2 nM), alpha-thrombin 2 nM, Sar-Pro-Arg-paranitroanilide

Row | SMILES | peptide concentration with significant prolongation (p<0.05) of the TCT [1] [µM] | inhibition of thrombin-induced calcium mobilization ([2]; 0.005 mM peptide) [%] | inhibition of thrombin-induced calcium mobilization ([2]; 0.02 mM peptide) [%] | Ki (γ-thrombin; listed as rOicPsF(p-I)) [µM] | peptide concentration with significant prolongation (p<0.05) of the APTT [3] [µM] | Concentration of Peptide [mM] That Gives 100% Inhibition [4] [mM] | concentration that abolished γ-thrombin-induced platelet aggregation [4] [µM] | peptide concentration with significant prolongation (p<0.05) of the PT [5] [µM] | Ki (γ-thrombin) [µM] | Ki (human α-thrombin) [µM] | Ki (γ-thrombin; listed as rOicPsF(p-NO2)) [µM]
1 | C[C@@H](NC(=O)[C@@H]1CCCN1C(=O)[C@@H]1C[C@@H]2CCCC[C@@H]2N1C(=O)[C@H](N)CCCNC(=N)N)C(=O)N[C@@H](Cc1ccc(I)cc1)C(N)=O [rOicPaF(p-I), D-Arg-Oic-Pro-D-Ala-Phe(p-I)] (HELM PEPTIDE1{[dR].[O=C([C@@H]1C[C@@H]2CCCC[C@@H]2N1[*:1])[*:2]].P.[dA].[O=C([C@H](Cc1ccc(I)cc1)N[*:1])[*:2]].[am]}$$$$V2.0; N-terminus assumed) | 0.78 | 36 | 88 | 59.2 ± 13 | 25 | 0.023 | 23 | 6.25 | – | – | –
2 | C[C@@H](NC(=O)[C@@H]1CCCN1C(=O)[C@@H]1C[C@@H]2CCCC[C@@H]2N1C(=O)[C@H](N)CCCNC(=N)N)C(=O)N[C@@H](Cc1ccc(Br)cc1)C(N)=O [rOicPaF(p-Br), D-Arg-Oic-Pro-D-Ala-Phe(p-Br)] (HELM PEPTIDE1{[dR].[O=C([C@@H]1C[C@@H]2CCCC[C@@H]2N1[*:1])[*:2]].P.[dA].[O=C([C@H](Cc1ccc(Br)cc1)N[*:1])[*:2]].[am]}$$$$V2.0) | 0.78 | 35 | 84 | – | 12.5 | 0.018 | 18 | 6.25 | 48.7 ± 7 | 6.4 to 10.6 | –
3 | C[C@@H](NC(=O)[C@@H]1CCCN1C(=O)[C@@H]1C[C@@H]2CCCC[C@@H]2N1C(=O)[C@H](N)CCCNC(=N)N)C(=O)N[C@@H](Cc1ccc([N+](=O)[O-])cc1)C(N)=O [rOicPaF(p-NO2), D-Arg-Oic-Pro-D-Ala-Phe(p-NO2)] (HELM PEPTIDE1{[dR].[O=C([C@@H]1C[C@@H]2CCCC[C@@H]2N1[*:1])[*:2]].P.[dA].[O=C([C@H](Cc1ccc([N+](=O)[O-])cc1)N[*:1])[*:2]].[am]}$$$$V2.0; N-terminus assumed) | 1.56 | 26 | 47 | – | 50 | 0.033 | 33 | 6.25 | – | – | 87.9 ± 16
